From ChEMBL document CHEMBL1201862, “PubChem BioAssay data set” (2004)
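Values below derive from 48-hour exposures of cells grown in 96-well plates, with endpoints linearly interpolated between the two concentrations bracketing the appropriate inhibition level. GI50 marks 50% less growth.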 Calls of active or inactive are those of the source. Rule as the data show it: active = GI50 up to about 1.1 µM and inactive = higher.

Key:
Assay in all cases: NCI tumour cell line growth inhibition, 48 h
A498 = test system: A498
HCT-116 = test system: HCT-116
HCT-15 = test system: HCT-15
HL-60 = test system: HL-60
IGROV-1 = test system: IGROV-1
K562 = test system: K562
KM12 = test system: KM12
LXFL 529 = test system: LXFL 529
Malme-3M = test system: Malme-3M
NCI-H522 = test system: NCI-H522
OVCAR-3 = test system: OVCAR-3
OVCAR-4 = test system: OVCAR-4
OVCAR-5 = test system: OVCAR-5
OVCAR-8 = test system: OVCAR-8
SF-539 = test system: SF-539
SK-MEL-2 = test system: SK-MEL-2
SK-MEL-5 = test system: SK-MEL-5
SR = test system: SR
SW-620 = test system: SW-620
UO-31 = test system: UO-31

Row | SMILES | GI50 (A498) | GI50 (HCT-116) | GI50 (HCT-15) | GI50 (HL-60) | GI50 (IGROV-1) | GI50 (K562) | GI50 (KM12) | GI50 (LXFL 529) | GI50 (Malme-3M) | GI50 (NCI-H522) | GI50 (OVCAR-3) | GI50 (OVCAR-4) | GI50 (OVCAR-5) | GI50 (OVCAR-8) | GI50 (SF-539) | GI50 (SK-MEL-2) | GI50 (SK-MEL-5) | GI50 (SR) | GI50 (SW-620) | GI50 (UO-31)
1 | Nc1nc(O)c2c(ncn2CC(O)CO)n1 (stereo not given) | > 100 µM (inactive) | > 100 µM (inactive) | > 100 µM | > 100 µM (inactive) | > 100 µM (inactive) | > 100 µM (inactive) | > 100 µM (inactive) | > 100 µM (inactive) | > 100 µM (inactive) | > 100 µM (inactive) | > 100 µM (inactive) | > 100 µM (inactive) | > 100 µM (inactive) | > 100 µM (inactive) | > 100 µM (inactive) | > 100 µM (inactive) | > 100 µM (inactive) | > 100 µM (inactive) | > 100 µM (inactive) | > 100 µM (inactive)
2 | OC1[C@H]([C@H]2CCCC[C@@H]2O)CCC[C@@H]1[C@@H]1CCCC[C@H]1O (stereo not given in full) | > 100 µM (inactive) | > 100 µM (inactive) | > 100 µM | > 100 µM (inactive) | > 100 µM (inactive) | > 100 µM (inactive) | > 100 µM (inactive) | > 100 µM (inactive) | > 100 µM (inactive) | > 100 µM (inactive) | > 100 µM (inactive) | > 100 µM (inactive) | > 100 µM (inactive) | > 100 µM (inactive) | > 100 µM (inactive) | > 100 µM (inactive) | > 100 µM (inactive) | > 100 µM (inactive) | > 100 µM (inactive) | > 100 µM (inactive)
